Data from US9284283B2, “Macrocyclic compounds for modulating IL-17” (ENSEMBLE THERAPEUTICS CORPORATION, priority 2012, dated 2016).

Columns and labels:
[1] = target: T1, IL17A (Homo sapiens, UniProt Q16552); assay: Surface Plasmon Resonance (SPR) analysis of compound interactions with IL17A; details: SPR binding to IL17A
T1 sequence (Q16552 24-155): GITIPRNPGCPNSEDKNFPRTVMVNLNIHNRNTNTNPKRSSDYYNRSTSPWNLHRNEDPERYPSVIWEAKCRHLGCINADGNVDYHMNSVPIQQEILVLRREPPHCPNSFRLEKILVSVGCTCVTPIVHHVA
Protocol: SPR analysis was carried out with a GE Healthcare (Piscataway, N.J.) Biacore X100 system. Typically, the chip (NTA Biacore Biosensor chip; GE Healthcare BR-1000-34) was first conditioned by injection of 0.35 M EDTA, which also served to remove any immobilized proteins from previous runs. Before immobilization of the recombinant 6-His-tagged IL17, the chip was washed with 0.5 mM nickel chloride in NTA buffer (10 mM HEPES buffer, 0.15 M sodium chloride, 10 μM ethylene diamine tetraacetic acid, 0.005% v/v surfactant P20 (GE Healthcare BR-1000-54)) to form a nickel chelate on the chip. IL17 protein was immobilized onto a NTA chip through its 6-His tag. IL17A was typically injected at 0.25 μM for 60-120 seconds, followed by a stabilization step washing with NTA+0.5% DMSO for 120 seconds or longer.
Five 2-fold or 3-fold serial dilutions of test compound were injected serially onto the chip. All steps were conducted using NTA buffer containing 0.5% v/v dimethylsulfoxide (DMSO). Compounds were diluted from stock solutions of 10 mM concentration in 100% DMSO with NTA buffer to obtain 50 μM solutions in NTA+0.5% DMSO. Subsequent 2× or 3× dilutions were made in NTA+0.5% DMSO. Compound was generally injected for 180 seconds followed by washing the chip in buffer alone for 120 seconds. The rate of refractive index change (RU units/time) and the maximum extend of RU change was measured during the “on” phase of analyte injection, followed by measuring the rate during the “off” phase.
Kinetic parameter fits were conducted using the Biacore SPR Evaluation Program (GE Healthcare) for 1:1 molecular binding fits, after subtracting the baseline average of 2 or more runs in which no analyte was injected. This program then reports the best fit average for the “on” rate (Ka), the “off” rate (Kd) and the dissociation constant (KD) (Chaiken, I et al., Anal Biochem 201, 197-210 (1992)). A separate program in the Biacore SPR Evaluation Program then calculates the best fit for Kd based upon the extent of binding alone (RU units bound) at each concentration of analyte and reports the best fit Kd by best fit to a Lineweaver-Burke plot. Typically, the Kd value calculated through both means agreed within a factor of three.
The presence and activity of IL17 on the NTA chip was routinely confirmed three ways: • 1) An increase in response units (RU) upon immobilization confirms that the IL17 was immobilized on the chip; • 2) Anti-IL17 was also injected on the chip to confirm the presence of IL17; and • 3) IL17R was injected onto the chip to confirm that the immobilized IL17 retained its binding activity for its receptor. Negative controls to access specificity for compound binding were conducted by immobilizing unrelated, but his-tagged, proteins (such as cyclophilin D) and conducting the same analysis as done with IL17A.

[2] = target: T2, biotinylated human IL-17 (binding to IL17R/Fc) (Homo sapiens, UniProt Q16552); assay: IL-17 competition ELISA II (captured IL17R/Fc, biotinylated IL-17)
T2 construct: purchased R&D Systems 317-ILB (IL-17, biotinylated); 177-IR (IL17R/Fc)
T2 sequence (Q16552 20-155 limits assumed): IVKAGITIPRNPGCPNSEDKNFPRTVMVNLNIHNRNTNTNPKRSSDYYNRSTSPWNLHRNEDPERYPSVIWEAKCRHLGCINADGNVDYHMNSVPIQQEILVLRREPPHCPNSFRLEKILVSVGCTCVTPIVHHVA
Procedure, shortened: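 Anti-human IgG-coated plates captured IL17R/Fc (10 nM), then compound (5-fold dilutions from 1 μM) and biotinylated human IL-17 (20 nM stock) were added for 30 min at room temperature in PBST. Bound IL-17 detected by streptavidin-HRP/TMB at 450 nm. IC50 from 4-parameter logistic fit between no-competitor and blank controls.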

[3] = test system: IL-17A induced secretion of IL-6 in primary human RASF cells; assay: Inhibition of IL17A induced secretion of IL6 in human rheumatoid arthritis synovial fibroblast (RASF) cells; assay type: cell-based; details: Homo sapiens, Fibroblast
Procedure, shortened: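 Primary RASF cells (passage 2-8) stimulated 20 h at 37 °C with rhIL-17A (30 ng/mL) pre-incubated 1 h with compound (final 0.03-25 μM, 0.25% DMSO). Supernatant IL-6 measured by ELISA, normalized to WST1 viability; triplicates.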

[4] = target: T3, recombinant human IL17a (binding to its receptor IL17R) (Homo sapiens, UniProt Q16552); assay: IL-17 competition ELISA I (IL17a coated, IL17R/Fc binding)
T3 construct: purchased R&D Systems 317-ILB (IL17a); 177-IR (IL17R/Fc)
T3 sequence (Q16552 20-155 limits assumed): T2 sequence (Q16552 20-155 limits assumed)
Procedure, shortened: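 Plates coated with 20 nM recombinant human IL17a received compound dilutions and 12 nM IL17R/Fc (final) for 30 min at room temperature. Bound receptor was detected with HRP anti-human Fc and TMB, read at 450 nm. IC50 came from a 4-parameter logistic fit between no-competitor and blank controls.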

Structure (SMILES) | Kd [1] [nM] | IC50 [2] [nM] | IC50 [4] [nM] | IC50 [3] [nM]
COC(=O)[C@H]1CCCCNC(=O)CCCNC(=O)[C@H](Cc2ccc(NC(=O)[C@H](Cc3ccccc3F)NC(=O)Cc3ccccc3)cc2)NC(=O)CC2(CCCC2)CC(=O)N1 [Compound 101] | 1000 to 10000 |  |  | 
O=C1CC2(CCCC2)CC(=O)N[C@@H](C(=O)O)CCCCNC(=O)[C@H](Cc2ccc(NC(=O)[C@H](Cc3ccccc3F)NC(=O)Cc3ccccc3)cc2)N1 [Compound 102] | > 10000 |  |  | 
O=C1CCCNC(=O)[C@H](Cc2ccc(NC(=O)[C@H](Cc3ccccc3F)NC(=O)Cc3ccccc3)cc2)NC(=O)CC2(CCCC2)CC(=O)N[C@@H](C(=O)O)CCCCN1 [Compound 103] | > 10000 |  |  | 
CNC(=O)N[C@@H](Cc1ccccc1Cl)C(=O)Nc1ccc(C[C@H]2NC(=O)CC3(CCCC3)CC(=O)NCCCCCNC(=O)CNC2=O)cc1 [Compound 273] |  | < 100 | 100 to 1000 | 1000 to 10000
O=C1CNC(=O)[C@@H](Cc2ccc(NC(=O)[C@H](CC3CCCCC3)NC(=O)Cc3ccccc3)cc2)NC(=O)CC2(CCCC2)CC(=O)NCCCCCN1 [Compound 293] |  | < 100 | 100 to 1000 | 1000 to 10000
O=C1CNC(=O)[C@@H](Cc2ccc(NC(=O)[C@@H](NC(=O)Cc3ccccc3)C3CCCCC3)cc2)NC(=O)CC2(CCCC2)CC(=O)N[C@H](C(=O)O)CCCCN1 [Compound 316] |  | < 100 | < 100 | 100 to 1000
CN1CCCCCNC(=O)CNC(=O)[C@@H](Cc2ccc(NC(=O)[C@@H](NC(=O)Cc3ccccc3)C3CCCCC3)cc2)NC(=O)CC2(CCCC2)CC1=O [Compound 332] |  | < 100 | 100 to 1000 | 1000 to 10000
O=C1CC2(CCCC2)CC(=O)N[C@H](Cc2ccc(NC(=O)[C@@H](NC(=O)Cc3ccc(CO)cc3)C3CCCCC3)cc2)C(=O)N[C@H](Cc2ccccc2)C(=O)NCCCCCN1 [Compound 336] |  | < 100 | 100 to 1000 | 100 to 1000
O=C1CNC(=O)[C@@H](Cc2ccc(NC(=O)[C@H](Cc3ccccc3Cl)NC(=O)Cc3ccccc3)cc2)NC(=O)CC2(CCCC2)CC(=O)NCCNCCN1 [Compound 338] |  | < 100 | 100 to 1000 | > 10000
O=C1CC2(CCCC2)CC(=O)N[C@H](Cc2ccc(NC(=O)[C@H](Cc3ccccc3Cl)NC(=O)Cc3ccccc3)cc2)C(=O)NCC(=O)N[C@H](C(=O)O)CCCCN1 [Compound 339] |  | < 100 | < 100 | 100 to 1000
NC(=O)CC[C@H]1NC(=O)[C@@H](Cc2ccc(NC(=O)[C@H](Cc3ccccc3Cl)NC(=O)Cc3ccccc3)cc2)NC(=O)CC2(CCCC2)CC(=O)NCCCCCNC1=O [Compound 341] |  | < 100 | < 100 | < 100
C[C@H]1NC(=O)[C@@H](Cc2ccc(NC(=O)[C@@H](NC(=O)Cc3ccccc3)C3CCCCC3)cc2)NC(=O)CC2(CCCC2)CC(=O)NCCCCCNC1=O [Compound 342] |  | < 100 | 100 to 1000 | 100 to 1000
COC(=O)[C@@H]1CCCCNC(=O)CNC(=O)[C@@H](Cc2ccc(NC(=O)[C@@H](NC(=O)c3cccnc3)C3CCCCC3)cc2)NC(=O)CC2(CCCC2)CC(=O)N1 [Compound 352] |  |  | 1000 to 10000 | > 10000
C[C@H]1NC(=O)[C@@H](Cc2ccc(NC(=O)[C@H](Cc3ccccc3Cl)NC(=O)c3cccnc3)cc2)NC(=O)CC2(CCCC2)CC(=O)NCCCCCNC1=O [Compound 353] |  | < 100 | 100 to 1000 | 1000 to 10000
C[C@H]1NC(=O)[C@@H](Cc2ccc(NC(=O)[C@@H](NC(=O)c3cccnc3)C3CCCCC3)cc2)NC(=O)CC2(CCCC2)CC(=O)NCCCCCNC1=O [Compound 361] |  | < 100 | 100 to 1000 | 1000 to 10000
C[C@H]1NC(=O)[C@@H](Cc2ccc(NC(=O)[C@H](Cc3ccccc3Cl)NC(=O)Cc3ccccc3)cc2)NC(=O)CC2(CCCC2)CC(=O)N[C@H](C(=O)O)CCCCNC1=O [Compound 367] |  | < 100 | < 100 | < 100
C[C@H]1NC(=O)[C@@H](Cc2ccc(NC(=O)[C@H](Cc3ccccc3Cl)NC(=O)c3cccnc3)cc2)NC(=O)CC2(CCCC2)CC(=O)N[C@H](C(=O)O)CCCCNC1=O [Compound 368] |  | < 100 | 100 to 1000 | 100 to 1000
C[C@H]1NC(=O)[C@@H](Cc2ccc(NC(=O)[C@@H](NC(=O)Cc3ccccc3)C3CCCCC3)cc2)NC(=O)CC2(CCCC2)CC(=O)N[C@H](C(=O)O)CCCCNC1=O [Compound 369] |  | < 100 | < 100 | < 100
O=C1CNC(=O)[C@@H](Cc2ccc(NC(=O)[C@@H](NC(=O)Cc3cccc(O)c3)C3CCCCC3)cc2)NC(=O)CC2(CCCC2)CC(=O)NCCCCCN1 [Compound 378] |  | < 100 | 100 to 1000 | 100 to 1000

Second part, led by results:

Kd [1] [nM] | IC50 [2] [nM] | IC50 [4] [nM] | Structure (SMILES) | IC50 [3] [nM]
 | < 100 | < 100 | O=C1CNC(=O)[C@@H](Cc2ccc(NC(=O)[C@H](Cc3ccccc3Cl)NC(=O)Cc3ccc(CO)cc3)cc2)NC(=O)CC2(CCCC2)CC(=O)NCCCCCN1 [Compound 218] | < 100
 | < 100 | < 100 | O=C1CNC(=O)[C@@H](Cc2ccc(NC(=O)[C@H](CC3CCC3)NC(=O)Cc3ccccc3)cc2)NC(=O)CC2(CCCC2)CC(=O)NCCCCCN1 [Compound 246] | > 10000
 | < 100 | < 100 | CC(=O)N[C@@H](Cc1ccccc1Cl)C(=O)Nc1ccc(C[C@H]2NC(=O)CC3(CCCC3)CC(=O)N[C@H](C(=O)O)CCCCNC(=O)CNC2=O)cc1 [Compound 264] | 100 to 1000
 | < 100 | < 100 | O=C1CNC(=O)[C@@H](Cc2ccc(NC(=O)[C@H](Cc3ccccc3Cl)NC(=O)c3cccnc3)cc2)NC(=O)CC2(CCCC2)CC(=O)N[C@H](C(=O)O)CCCCN1 [Compound 266] | 100 to 1000
 | < 100 | < 100 | CN(C)C(=O)N[C@@H](Cc1ccccc1Cl)C(=O)Nc1ccc(C[C@H]2NC(=O)CC3(CCCC3)CC(=O)NCCCCCNC(=O)CNC2=O)cc1 [Compound 274] | 100 to 1000
 | < 100 | < 100 | C[C@H]1NC(=O)[C@@H](Cc2ccc(NC(=O)[C@H](Cc3ccccc3Cl)NC(=O)Cc3ccccc3)cc2)NC(=O)CC2(CCCC2)CC(=O)NCCCCCNC1=O [Compound 288] | < 100
 | < 100 | < 100 | O=C1CNC(=O)[C@@H](Cc2ccc(NC(=O)[C@H](Cc3ccccc3Cl)NC(=O)NCc3ccccc3)cc2)NC(=O)CC2(CCCC2)CC(=O)NCCCCCN1 [Compound 302] | 100 to 1000
 | < 100 | < 100 | O=C1CNC(=O)[C@@H](Cc2ccc(NC(=O)[C@H](Cc3ccccc3Cl)NC(=O)Cc3ccc(F)cc3)cc2)NC(=O)CC2(CCCC2)CC(=O)NCCCCCN1 [Compound 305] | 100 to 1000
 | < 100 | < 100 | O=C1CC2(CCCC2)CC(=O)N[C@H](Cc2ccc(NC(=O)[C@H](Cc3ccccc3Cl)NC(=O)Cc3ccccc3)cc2)C(=O)N[C@H](CO)C(=O)NCCCCCN1 [Compound 340] | 100 to 1000
